Here are results for three molecules from article PMC10573946 (International Journal of Molecular Sciences, 2023).

For data set [1], the system named is G. lamblia strain WB trophozoites. Put plainly: In vitro giardicidal assay (trophozoite subculture, Probit analysis). It counts as cell-based, Giardia lamblia. To be noted: for IC50: Giardia duodenalis. Here is the method: G. lamblia strain WB was cultured in a TYI-S-33 medium (Manassas, VA, USA) supplemented with 10% calf serum and bovine bile. In vitro susceptibility tests were conducted using 4 × 10^4 trophozoites of G. lamblia. […] Additionally, a control group was incubated solely in a culture medium containing DMSO. Following the incubation period, the trophozoites were washed and subcultured in a fresh medium without drugs for an additional 48 h. Subsequently, the trophozoites count was performed, and the median inhibitory concentration (IC50) was calculated with a Probit analysis. All experimental procedures were replicated in triplicate.

Another data set deals with G. lamblia (WB strain). Put plainly: In vivo antigiardial CD-1 mouse model. Details: species or system CD-1 mice. To be noted: for ED50: Giardia duodenalis, 48 h. Here is the method:
The in vivo antigiardial activity of the compounds was assessed following a previously described phenotypic drug screening method. Female CD-1 mice (16–24 g) were obtained from the animal house facility at Universidad Autónoma Metropolitana, Xochimilco, and were maintained under standard laboratory conditions. The experimental protocols were reviewed and approved by the Animal Care and Use Committee, ensuring compliance with the guidelines for the care and use of laboratory animals. The giardicidal effect of RetroABZ was evaluated on mice infected with trophozoites of the G. lamblia WB strain. Mice were orally treated with a mebendazole solution (10 mg/mouse/day) for 3 consecutive days to ensure their freedom from any potential protozoan infections. One week after treatment, three consecutive fecal examinations were conducted to confirm the absence of protozoan infections before proceeding with experimental infection. Mice (n = 6 per group) were intragastrically infected with 1 × 10^6 trophozoites in 300 µL of a TYI-S-33 medium (Manassas, VA, USA) using a silastic tube ([…]. outside diameter) attached to a 1 mL syringe. Six days after infection, mice were treated intragastrically with 300 µL of RetroABZ dissolved in 1 mL of a 2% DMSO solution in water. […] Five single doses (0.018, 0.037, 0.075, 0.15, and 0.3 mg/kg) of both compounds were evaluated. Forty-eight hours after the treatment (8 days post-infection), the mice were euthanized, and the entire small intestine was removed, opened longitudinally, and placed in 10 mL of a 10% PAF fixer for a minimum of 2 h. Tubes were then vortexed to ensure complete detachment of the trophozoites, and the number of organisms present was calculated for both the treated and control groups.
A data analysis was performed utilizing a Probit analysis. The percentage of surviving trophozoites was calculated by comparing their growth with the control group. To determine the dose required to kill 50% of the trophozoites (ED50), along with the 95% confidence limits, a Probit plot against the logarithm of the drug concentration was generated.

The nature of data set [2]: Thermodynamic aqueous solubility (shake-flask, HPLC). It counts as physicochemical. To be noted: for solubility at 48 h: 37 °C, thermodynamic from solid, water. Here is the method:
The aqueous solubility of RetroABZ was assessed using the shake-flask saturation method, as described in previous studies. […] Subsequently, the solution was filtered through a 0.2 μm filter (Phenex-NY 4mm, Torrance, CA, USA). The aqueous solubility of the compound was then determined using an HPLC method. Experimentally, the compound RetroABZ was analyzed with high-performance liquid chromatography (HPLC PerkinElmer 200, Waltham, Massachusetts). The HPLC analysis was performed using an ultraviolet detector (UV/VIS 200). The analite was monitored at a wavelength of 254 nm. Chromatographic separation was performed using a Phenomenex Luna C18 (4.6 × 150 mm, 5 µm, Torrance, CA, USA). The mobile phase utilized in the study consisted of a mixture of methanol and water in a ratio of 60:40 (v/v). The elution from the stationary phase was conducted at a constant flow rate of 1 mL/min (isocratic mode). Aliquots of 20 µL were injected into the HPLC system and the total run time for each injection was set at 10 min; the analysis was performed for triplicate. […] Chromatographic separation was performed using a Phenomenex Luna C18 (4.6 × 150 mm, 5 µm). The mobile phase utilized was a mixture of methanol and a 0.05 M phosphate buffer (pH 5.7), 70:30 (v:v). The flow rate was kept constant at 1 mL/min. To prepare the saturated solution of the compound (1 mg/mL), it was stirred for 48 h at a constant temperature of 37 ± 2 °C. Subsequently, the solution was filtered through a 0.2 µm filter (Phenex-NY 4 mm). Aliquots of 20 µL were injected into the HPLC system, and the analysis was performed for triplicate.

Data set [3] relates to Huh-7 (human hepatocellular carcinoma cell line). More on the design: method as in PMID 35036753. To be noted: albendazole, reported value; cited from earlier work.
Data set [4] has as its system HaCaT (immortalized human keratinocytes). More on the design: method as in PMID 35036753. Conditions: albendazole, reported value; cited from earlier work.
The conditions of data set [5]: cited from earlier work.
For data set [6] the following is noted: cited from earlier work. The source holds these as a separate data set.
A short description of data set [7]: In vitro cytotoxic assay (CellTiter 96 AQueous One) in Huh-7. It is filed as cell-based, human. Conditions: human, Huh-7 cells, 48 h. The protocol: (§1) The cytotoxic assay of RetroABZ was carried out in Huh-7 (human hepatocellular carcinoma cell line) cells acquired from ATCC (American Type Culture Collection, Manassas, VA, USA). We also included an immortalized human epidermal keratinocyte line (HaCaT) as a control of non-cancerous cells. The cells were cultured in a DMEM medium (Invitrogen, Thermo Fisher Scientific, Inc., Waltham, MA, USA), supplemented with 10% fetal bovine serum (SFB, Invitrogen) and 2 mM glutamine. All cultures were maintained under standard culture conditions (37 °C and 5% CO2). For the cytotoxic assessment in a 96-well plate, 5000 cells per well were planted. […] The cellular viability was next calculated utilizing the CellTiter 96® AQueous One Solution Cell Proliferation Assay kit (Promega, Madison, WI, USA), following the manufacturer’s instructions. The experiments were carried out in triplicate in separate experiments. The Prism 8.0 statistical tool (Graphpad Software Inc., La Jolla, CA, USA) was used to examine the data, and a regression analysis was used to obtain the IC50.

In data set [8] the test system is Huh-7 (human hepatocellular carcinoma cell line). Described as above. It counts as cell-based. Here is the method:
as §1

Data set [9] can be described thus: In vitro cytotoxic assay (CellTiter 96 AQueous One) in HaCaT. It counts as cell-based, human. Conditions: human, HaCaT cells (immortalized keratinocytes). The protocol: as §1
Data set [10] concerns HaCaT (immortalized human keratinocytes). The description is as above. It is filed as cell-based. To be noted: 48 h. Here is the method: as §1
The mark [11] stands for this setting: infected CD-1 mice, single intragastric dose, 48 h after treatment, read-out: ED50.

Converted amounts (≈) assume the structure as drawn. “And” between values parts separate entries of the source, which are not always exact repeats. Identical values can stand only once. Like-named read-outs stand apart in the source and are kept apart here.

In general, IC50 refers to the concentration that inhibits the measured activity by half. As usually defined, the ED50 is the midpoint of the dose-response relation. Usually solubility stands for the dissolved amount per volume that the medium holds. As for `CCCSc1ccc2nc(NC(=O)OC)[nH]c2c1` [Albendazole], the IC50 in [1] (48 h, read-out: IC50 G. lamblia, trophozoites, 48 h incubation at 37 °C then 48 h subculture) came to 0.196 ± 0.011 µM. Besides, in the data set on G. lamblia (WB strain), the ED50 is 0.055 mg/kg and 0.207 µmol/kg. In data set [2] (37 ± 2 °C, 48 h, read-out: Solubility in water), the solubility at 48 h was found to be 10.6 ± 0.7 µg/mL (≈ 39.8 µM). The CC50 in data set [3] is 79.7 ± 1 µM; in data set [4], 118.2 ± 1 µM. Further, in data set [5] (25 °C), the documented solubility is 0.02 µg/mL. The reported solubility in [5] is given as 0.2 µg/mL. Further, the oral bioavailability in data set [6] is 5%; in [6] (stated in discussion, no reference given), “less than 5%”.
Regarding `Cc1ncc([N+](=O)[O-])n1CCO` [Metronidazole, reference compound], the ED50 with G. lamblia (WB strain) (setting [11]) is 0.194 mg/kg and 1.13 µmol/kg.
Consider `CCCSc1nc2cc(NC(=O)OC)ccc2[nH]1` [RetroABZ, Methyl (2-(propylthio)-1H-benzo[d]imidazol-5-yl)carbamate], for which the IC50 in data set [1] (trophozoites, 48 h incubation at 37 °C then 48 h subculture, read-out: IC50 G. lamblia) is 0.083 ± 0.013 µM. Besides, in data set [1] (ratio of IC50 values), the “in vitro giardicidal activity relative to albendazole” value was 2.4 times. Moreover, the CC50 at 48 h in data set [7] and in data set [9] was > 300 µM each time. Besides, the CC50 was found to be 313 ± 22.2 µM in data set [8] (48 h) and 588 ± 18.5 µM in data set [10]. Besides, the “Selectivity Index CC50/IC50 Huh-7” value in data set [8] (CC50 Huh-7 / IC50 G. lamblia) is given as 3768. In the data set on G. lamblia (WB strain) (setting [11]), the ED50 was 0.0188 µmol/kg and 0.005 mg/kg. Further, the “in vivo giardicidal activity relative to albendazole” value in the data set on G. lamblia (WB strain) (ratio of ED50 values) worked out at 11 fold. Besides, the “in vivo potency relative to metronidazole” value in the data set with G. lamblia (WB strain) (ratio of ED50 values) worked out at 39 fold. The same molecule showed a solubility at 48 h in data set [2] (Solubility in water) of 246 µg/mL (≈ 926 µM). In [2] (48 h), the Solubility in water is 245.74 ± 4.07 µg/mL (≈ 926 µM).
